According to patent US7645736B2, “Integrin inhibitors for the treatment of eye diseases” (Merck Patent GmbH, priority 2004, dated 2010):

Tested on: bFGF-stimulated corneal angiogenesis
Experiment: rabbit corneal micropocket model, single intravitreal injection
Type: in vivo
Conditions: single (day 0) intravitreal, 100 μL, drug = 2 mg/eye; for inhibition [%] of neovascularisation area: vs saline control
Description: (1996). In this model angiogenesis is stimulated by implantation of Hydron pellets containing an angiogenesis stimulating cytokine like, for example, fibroblast growth factor (FGF) or vascular endothelial growth factor (VEGF) into the cornea. After implantation the active compound to be tested is administered by paralimbal intravitreal injection. Effect on neovascularisation is measured after predetermined time intervals by visual examination using a microscope, photographing and computer-assisted quantification of photographs.
The effect of intravitreal application of an αvβ3 and/or αvβ5 inhibitor was examined in rabbit corneal micropocket model as described by Shaffer R. W. (see above). As an example for an αvβ3 and/or αvβ5 inhibitor 2-(2,2-dimethylpropyloxycarboxamido)-3{3,4-dihydro-2-[N-(2-imidazoly)-carbamoylethyl]-2H-1,4-benzoxazin-3-on-6-yl}propionic acid was used in the experiment. For induction of angiogenesis Hydron pellets containing basic fibroblast growth factor (bFGF) were used. Preparation of bFGF containing implants was performed by casting Hydron [poly(hydroxyethyl)methacrylate] in specially prepared Teflon pegs that have a 2.5 mm core drilled into their surfaces. Approximately 12 μl of casting material was placed into each peg and polymerized overnight in a sterile hood, then sterilized by ultraviolet irradiation.
The experiment consisted of 10 animals; in each eye of the animals one individual pellet was implanted into a surgically created “pocket” in the mid stroma of the rabbit cornea. The surgical procedure was done under sterile technique using a Moeller-Wedel Microflex operating microscope (Haag-Streit Company, Germany) equipped with a beamsplitter and camera for photographically recording individual comeas. A 69 Beaver blade was used to create a 3 mm by 5 mm “pocket” to a depth of half the comeal thickness. The stroma was dissected peripherally using an spatula and the pellet implanted with its peripheral margin 2 mm from limbus. […] For comparison the same procedure was performed in the other 5 animals using saline only. Following implantation the eyes Were photographed and the area of neovascularisation measured after predetermined intervals.

With `CC(C)(C)COC(=O)NC(Cc1ccc2c(c1)NC(=O)C(CCC(=O)Nc1ncc[nH]1)O2)C(=O)O` (centres unmarked) [Drug, 2-(2,2-dimethylpropyloxycarboxamido)-3-{3,4-dihydro-2-[N-(2-imidazolyl)-carbamoylethyl]-2H-1,4-benzoxazin-3-on-6-yl}propionic acid] the “mean area [mm^2] of neovascularisation” value (5 days post implantation) was 1.71 mm^2, the “inhibition [%] of neovascularisation area” value (shortened to “inhibition [%]”) (5 days post implantation) was 56.3% and the “mean area [mm^2] of neovascularisation” value (7 days post implantation) was 4.65 mm^2. For the same compound, the “inhibition [%]” value (7 days post implantation) was 13.4%, the “mean area [mm^2] of neovascularisation” value (10 days post implantation) was 5.10 mm^2 and the “inhibition [%]” value (10 days post implantation) was 45.8%. For the same compound, the “mean area [mm^2] of neovascularisation” value (14 days post implantation) was 9.94 mm^2 and the “inhibition [%]” value (14 days post implantation) was 40.0%.
